Laboratory results as given in BindingDB's records for doi:10.1046/j.1471-4159.1998.70062252.x (Paris-Sud University, 1998).
Values joined by “and” are separate entries in the source; they are usually repeats but may differ in a detail not shown here. Equal values may be shown once.

target: 5-hydroxytryptamine receptor 4 (Homo sapiens, UniProt Q13639)
Sequence (Q13639 whole entry): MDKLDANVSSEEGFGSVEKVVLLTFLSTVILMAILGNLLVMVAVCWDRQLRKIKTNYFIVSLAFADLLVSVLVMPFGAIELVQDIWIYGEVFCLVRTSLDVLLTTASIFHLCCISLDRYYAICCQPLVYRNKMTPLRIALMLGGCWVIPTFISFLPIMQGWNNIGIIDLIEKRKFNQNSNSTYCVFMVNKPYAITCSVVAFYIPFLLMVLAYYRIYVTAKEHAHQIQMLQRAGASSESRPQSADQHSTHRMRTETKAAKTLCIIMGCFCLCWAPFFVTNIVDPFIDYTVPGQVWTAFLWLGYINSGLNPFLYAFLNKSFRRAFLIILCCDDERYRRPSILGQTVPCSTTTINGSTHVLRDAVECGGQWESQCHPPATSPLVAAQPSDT

| SMILES | Ki |
| --- | --- |
| COc1cc(N)c(Cl)cc1C(=O)NC1CN2CCC1CC2 (stereo not drawn) [ZACOPRIDE,R] | > 10000 nM |
| Cn1cc(C(=O)OCC2CCN(CCNS(C)(=O)=O)CC2)c2ccccc21 [GR 113808] | 0.07 nM |
| CCn1c(=O)n(C(=O)NC2CC3CCC(C2)N3C)c2ccccc21 (stereo not drawn) [BIMU 1] | 373 nM and 123 nM and 66 nM and 38.8 nM |
